From US20150018546A1, “HETEROCYCLIC COMPOUND HAVING ANTI-HIV ACTIVITY” (TOYAMA CHEMICAL CO., LTD., priority 2012, published 2015) come the findings set out here.

The structures appear in SMILES notation.

This assay relates to HIV-1 (JRCSF). In words: Anti-HIV activity in MaRBLE cells infected with HIV-1 (JRCSF), luciferase readout. To be noted: Human immunodeficiency virus 1, 168 h; MaRBLE cells (human T lymphocyte-derived HPB-M(a)) infected with HIV-1 (JRCSF); 7 days culture; rate of viral proliferation by luciferase activity; read-out: Anti-HIV activity IC50. The assay is classed as cell-based. As to the method: This test was conducted with reference to Journal of Clinical Microbiology, 2007, Vol. 45, p. 477-487.
The anti-HIV activity was evaluated using MaRBLE cells in which a luciferase gene to be expressed under the control of HIV-1 LTR and a CCR5 gene, etc. were introduced in human T lymphocyte-derived HPB-M(a).
A fresh medium or each appropriately diluted test compound was dispensed to 96-well plates to prepare drug solution-containing plates.
The MaRBLE cells were suspended in RPMI1640 containing 10% FCS (fetal calf serum) and penicillin/streptomycin and infected with HIV-1 (JRCSF). Then, the cells were inoculated to the drug solution-containing plates (1×10^5 cells/well). The same number of uninfected cells were inoculated as a control group to the drug solution-containing plates.
After culture at 37° C. for 7 days in a 5% CO2 atmosphere, the intracellular luciferase activity was measured using Steady-Glo Luciferase assay system (Promega Corp.).
The rate of viral proliferation was determined according to the following expression:
Rate of viral proliferation(%)=(A/B)×100
A=(Firefly luciferase activity of the compound-supplemented well)−(Firefly luciferase activity of the uninfected cells)
B=(Firefly luciferase activity of the compound-free well)−(Firefly luciferase activity of the uninfected cells)
IC50 of the compound was calculated by a plot with concentration as the logarithm and the rate of viral proliferation as the real part using the FORECAST function (linear regression method) of Microsoft Office Excel 2003.

`COc1ccc(CNc2cc(=O)n(O)c3ncncc23)cc1` [Example 1, 8-hydroxy-5-((4-methoxybenzyl)amino)pyrido[2,3-d]pyrimidin-7(8H)-one]: the IC50 was determined as 110 nM.
For `O=c1cc(NCc2ccccc2)c2cncnc2n1O` [Example 2, 5-(benzylamino)-8-hydroxypyrido[2,3-d]pyrimidin-7(8H)-one] the value was 120 nM.
Consider `O=c1cc(NCc2ccc3ccccc3c2)c2cncnc2n1O` [Example 3, 8-hydroxy-5-((2-naphthylmethyl)amino)pyrido[2,3-d]pyrimidin-7(8H)-one], for which the IC50 stood at 190 nM.
As to `O=c1cc(NCC2CCCCC2)c2cncnc2n1O` [Example 4, 5-((cyclohexylmethyl)amino)-8-hydroxypyrido[2,3-d]pyrimidin-7(8H)-one], the IC50 was 410 nM.
Turning to `O=c1cc(NCc2ccccn2)c2cncnc2n1O` [Example 5, 8-hydroxy-5-(((pyridin-2-yl)methyl)amino)pyrido[2,3-d]pyrimidin-7(8H)-one], the IC50 worked out at 210 nM.
Turning to `O=c1cc(NCc2ccc(F)cc2F)c2cncnc2n1O` [Example 6, 5-((2,4-difluorobenzyl)amino)-8-hydroxypyrido[2,3-d]pyrimidin-7(8H)-one], the IC50 came out at 180 nM.
Take `CC(Nc1cc(=O)n(O)c2ncncc12)c1ccccc1` (centres unmarked) [Example 7, 8-hydroxy-5-((1-phenylethyl)amino)pyrido[2,3-d]pyrimidin-7(8H)-one]: the IC50 is 170 nM.
For the compound `O=c1cc(NC2CCCCC2)c2cncnc2n1O` [Example 8, 5-(cyclohexylamino)-8-hydroxypyrido[2,3-d]pyrimidin-7(8H)-one], the IC50 came to 220 nM.
As to `O=c1cc(NC2Cc3ccccc3C2)c2cncnc2n1O` [Example 10], the IC50 was determined as 530 nM.
Take `O=c1cc(Nc2ccccc2)c2cncnc2n1O` [Example 16, 5-anilino-8-hydroxypyrido[2,3-d]pyrimidin-7(8H)-one]: the 50% inhibitory concentration (IC50) was determined as 280 nM.
Take `O=c1cc(NCCc2ccccc2)c2cncnc2n1O` [Example 17, 8-hydroxy-5-((2-phenylethyl)amino)pyrido[2,3-d]pyrimidin-7(8H)-one]: the 50% inhibitory concentration (IC50) was determined as 690 nM.
Consider `O=c1cc(NCc2cccnc2)c2cncnc2n1O` [Example 18, 8-hydroxy-5-((pyridin-3-ylmethyl)amino)pyrido[2,3-d]pyrimidin-7(8H)-one], for which the IC50 amounted to 230 nM.
With `Cc1ncnc2c1c(O)cc(=O)n2O` [Example 21, 5,8-dihydroxy-4-methylpyrido[2,3-d]pyrimidin-7(8H)-one], the IC50 is 880 nM.
In the case of `Cc1ncnc2c1c(NCc1ccccc1)cc(=O)n2O` [Example 22, 5-(benzylamino)-8-hydroxy-4-methylpyrido[2,3-d]pyrimidin-7(8H)-one], the IC50 was determined as 47 nM.
In the case of `Cc1ncnc2c1c(NCc1cccc(C(F)(F)F)c1)cc(=O)n2O` [Example 28, 8-hydroxy-4-methyl-5-((3-(trifluoromethyl)benzyl)amino)pyrido[2,3-d]pyrimidin-7(8H)-one], the IC50 is 43 nM.
On to `Cc1ncnc2c1c(NCc1cccc(N(C)C)c1)cc(=O)n2O` [Example 29, 5-((3-(dimethylamino)benzyl)amino)-8-hydroxy-4-methylpyrido[2,3-d]pyrimidin-7(8H)-one], for which the IC50 came to 50 nM.
For `Cc1ncnc2c1c(NCc1ccc(N(C)C)cc1)cc(=O)n2O` [Example 30, 5-((4-(dimethylamino)benzyl)amino)-8-hydroxy-4-methylpyrido[2,3-d]pyrimidin-7(8H)-one] the value was 76 nM.
Take `COc1cccc(CNc2cc(=O)n(O)c3ncnc(C)c23)c1` [Example 31, 8-hydroxy-5-((3-methoxybenzyl)amino)-4-methylpyrido[2,3-d]pyrimidin-7(8H)-one]: the IC50 worked out at 230 nM.
Regarding `COc1ccc(CNc2cc(=O)n(O)c3ncnc(C)c23)cc1` [Example 32, 8-hydroxy-5-((4-methoxybenzyl)amino)-4-methylpyrido[2,3-d]pyrimidin-7(8H)-one], the IC50 is 29 nM.
Regarding `COc1ccccc1CNc1cc(=O)n(O)c2ncnc(C)c12` [Example 33, 8-hydroxy-5-((2-methoxybenzyl)amino)-4-methylpyrido[2,3-d]pyrimidin-7(8H)-one], the IC50 worked out at 53 nM.
In the case of `Cc1ncnc2c1c(NCc1cccc(C#N)c1)cc(=O)n2OCc1ccccc1` [Example 34, 3-(((8-(benzyloxy)-4-methyl-7-oxo-7,8-dihydropyrido[2,3-d]pyrimidin-5-yl)amino)methyl)benzonitrile], the 50% inhibitory concentration (IC50) was 65 nM.
For `Cc1ncnc2c1c(NCC1CCCCC1)cc(=O)n2O` [Example 35, 5-((cyclohexylmethyl)amino)-8-hydroxy-4-methylpyrido[2,3-d]pyrimidin-7(8H)-one] the value was 68 nM; for `Cc1ncnc2c1c(NCc1ccccc1F)cc(=O)n2O` [Example 36, 5-((2-fluorobenzyl)amino)-8-hydroxy-4-methylpyrido[2,3-d]pyrimidin-7(8H)-one], 86 nM; for `Cc1ncnc2c1c(NC1CCCCC1)cc(=O)n2O` [Example 37, 5-(cyclohexylamino)-8-hydroxy-4-methylpyrido[2,3-d]pyrimidin-7(8H)-one], 110 nM.
As for `COc1ccc(CNc2cc(=O)n(O)c3ncnc(C)c23)c(OC)c1` [Example 38, 5-((2,4-dimethoxybenzyl)amino)-8-hydroxy-4-methylpyrido[2,3-d]pyrimidin-7(8H)-one], the IC50 came to 42 nM.
In the case of `CCN(CC)c1ccc(CNc2cc(=O)n(O)c3ncnc(C)c23)cc1` [Example 39, 5-((4-(diethylamino)benzyl)amino)-8-hydroxy-4-methylpyrido[2,3-d]pyrimidin-7(8H)-one], the IC50 was determined as 62 nM.
For `Cc1ncnc2c1c(NCc1ccc(N(C)C)nc1)cc(=O)n2O` [Example 40, 5-(((6-(dimethylamino)pyridin-3-yl)methyl)amino)-8-hydroxy-4-methylpyrido[2,3-d]pyrimidin-7(8H)-one] the value was 48 nM; for `Cc1ncnc2c1c(NCc1cccnc1N(C)C)cc(=O)n2O` [Example 41, 5-(((2-(dimethylamino)pyridin-3-yl)methyl)amino)-8-hydroxy-4-methylpyrido[2,3-d]pyrimidin-7(8H)-one], 48 nM.
With `Cc1ncnc2c1c(NCc1ccc(C#N)cc1)cc(=O)n2O` [Example 42, 4-(((8-hydroxy-4-methyl-7-oxo-7,8-dihydropyrido[2,3-d]pyrimidin-5-yl)amino)methyl)benzonitrile], the IC50 was 72 nM.
As for `Cc1ccc(CNc2cc(=O)n(O)c3ncnc(C)c23)cc1` [Example 43, 8-hydroxy-4-methyl-5-((4-methylbenzyl)amino)pyrido[2,3-d]pyrimidin-7(8H)-one], the IC50 was 39 nM.
Take `Cc1ncnc2c1c(NCc1ccc(Cl)cc1)cc(=O)n2O` [Example 44, 5-((4-chlorobenzyl)amino)-8-hydroxy-4-methylpyrido[2,3-d]pyrimidin-7(8H)-one]: the IC50 was determined as 29 nM.
For `Cc1ncnc2c1c(NCc1cccc(OC(F)(F)F)c1)cc(=O)n2O` [Example 45, 8-hydroxy-4-methyl-5-((3-(trifluoromethoxy)benzyl)amino)pyrido[2,3-d]pyrimidin-7(8H)-one] the value was 170 nM; for `Cc1ccccc1CNc1cc(=O)n(O)c2ncnc(C)c12` [Example 46, 8-hydroxy-4-methyl-5-((2-methylbenzyl)amino)pyrido[2,3-d]pyrimidin-7(8H)-one], 40 nM.
With `Cc1ncnc2c1c(NCc1cccc(Cl)c1)cc(=O)n2O` [Example 47, 5-((3-chlorobenzyl)amino)-8-hydroxy-4-methylpyrido[2,3-d]pyrimidin-7(8H)-one], the IC50 was found to be 59 nM.
Take `Cc1ncccc1CNc1cc(=O)n(O)c2ncnc(C)c12` [Example 48, 8-hydroxy-4-methyl-5-(((2-methylpyridin-3-yl)methyl)amino)pyrido[2,3-d]pyrimidin-7(8H)-one]: the IC50 was 93 nM.
With `Cc1ncnc2c1c(NCc1ccc3c(c1)OCO3)cc(=O)n2O` [Example 49], the IC50 turned out to be 61 nM.
As for `Cc1ccc(CNc2cc(=O)n(O)c3ncnc(C)c23)cn1` [Example 50, 8-hydroxy-4-methyl-5-(((6-methylpyridin-3-yl)methyl)amino)pyrido[2,3-d]pyrimidin-7(8H)-one], the IC50 worked out at 110 nM.
With `Cc1ncnc2c1c(NCc1cncc(F)c1)cc(=O)n2O` [Example 51, 5-(((5-fluoropyridin-3-yl)methyl)amino)-8-hydroxy-4-methylpyrido[2,3-d]pyrimidin-7(8H)-one], the half-maximal inhibitory concentration (IC50) turned out to be 97 nM.
With `Cc1ncnc2c1c(NCc1ccc3c(c1)OCCO3)cc(=O)n2O` [Example 52, 5-(((2,3-dihydro-1,4-benzodioxin-6-yl)methyl)amino)-8-hydroxy-4-methylpyrido[2,3-d]pyrimidin-7(8H)-one], the IC50 is 20 nM.
With `Cc1ncnc2c1c(NC(C)c1cccnc1)cc(=O)n2O` (centres unmarked) [Example 53, 8-hydroxy-4-methyl-5-((1-(pyridin-3-yl)ethyl)amino)pyrido[2,3-d]pyrimidin-7(8H)-one], the IC50 turned out to be 80 nM.
For `Cc1ccncc1CNc1cc(=O)n(O)c2ncnc(C)c12` [Example 54, 8-hydroxy-4-methyl-5-(((4-methylpyridin-3-yl)methyl)amino)pyrido[2,3-d]pyrimidin-7(8H)-one] the value was 110 nM.
